Data on 1 compound can be found in ChEMBL document CHEMBL5528047, “A Potent SOS1 PROTAC Degrader with Synergistic Efficacy in Combination with KRASG12C Inhibitor” (J Med Chem, 2024).

Usually DC50 stands for the concentration giving 50% degradation. For orientation: Emax means the greatest response seen or fitted, relative to the assay's reference. In general, half-life refers to the time in which the quantity being followed falls by half. High values mean slow loss, low ones fast loss. Usually AUC(0-inf) stands for the area under the concentration-time curve extrapolated to infinity. Higher therefore signals high exposure. In general, IC50 refers to the concentration that gives 50% inhibition.

Data set [1] deals with T1, von Hippel-Lindau disease tumor suppressor/Son of sevenless homolog 1 (Homo sapiens, UniProt Q07889+P40337). Briefly: Protac activity at VHL/SOS1 in human PANC-1 cells assessed as SOS1 degradation incubated for 24 hrs by Western blotting analysis. The format is cell-based.
The target in data set [2] is T1, von Hippel-Lindau disease tumor suppressor/Son of sevenless homolog 1. Put plainly: Protac activity at VHL/SOS1 in human NCI-H358 cells assessed as SOS1 degradation incubated for 24 hrs by Western blotting analysis. The format is cell-based.
Data set [3] has the same target. Put plainly: Protac activity at VHL/SOS1 in human K562 cells assessed as maximum SOS1 degradation at 0.003 to 10 uM incubated for 24 hrs by Western blotting analysis. The format is cell-based. The following applies: dose 0.003-10 µM.
Target sequence in this assay (P40337 whole entry, looked up, one chain of several): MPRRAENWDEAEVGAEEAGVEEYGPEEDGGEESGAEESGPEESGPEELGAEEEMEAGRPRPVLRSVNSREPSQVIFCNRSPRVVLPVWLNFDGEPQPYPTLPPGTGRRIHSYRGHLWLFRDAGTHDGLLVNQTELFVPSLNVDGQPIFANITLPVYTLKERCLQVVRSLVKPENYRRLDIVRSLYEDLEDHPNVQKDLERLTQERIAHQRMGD
Data set [4] shares this target. Put plainly: Protac activity at VHL/SOS1 in human MIA PaCa-2 cells assessed as maximum SOS1 degradation at 0.003 to 10 uM incubated for 24 hrs by Western blotting analysis. It counts as cell-based. The following applies: dose 0.003-10 µM. A general note: A western blot detects proteins with antibodies after separation by electrophoresis.
Target sequence in this assay (P40337 whole entry, looked up, one chain of several): as above
Data set [5] shares this target. Put plainly: Protac activity at VHL/SOS1 in human K562 cells assessed as SOS1 degradation at 1 uM incubated for 96 hrs by Western blotting analysis. It counts as cell-based.
Target sequence in this assay (P40337 whole entry, looked up, one chain of several): as above
The target is the same in data set [6]. Briefly: Protac activity at VHL/SOS1 in human K562 cells assessed as SOS1 degradation at 1 uM preincubated with BI3406 for 2 hrs followed by compound addition and measured after 2 hrs by Western blotting analysis. It counts as cell-based.
Target sequence in this assay (P40337 whole entry, looked up, one chain of several): as above
The target in data set [7] is T2, Son of sevenless homolog 1 (Homo sapiens) (UniProt Q07889).
T2 sequence (whole entry): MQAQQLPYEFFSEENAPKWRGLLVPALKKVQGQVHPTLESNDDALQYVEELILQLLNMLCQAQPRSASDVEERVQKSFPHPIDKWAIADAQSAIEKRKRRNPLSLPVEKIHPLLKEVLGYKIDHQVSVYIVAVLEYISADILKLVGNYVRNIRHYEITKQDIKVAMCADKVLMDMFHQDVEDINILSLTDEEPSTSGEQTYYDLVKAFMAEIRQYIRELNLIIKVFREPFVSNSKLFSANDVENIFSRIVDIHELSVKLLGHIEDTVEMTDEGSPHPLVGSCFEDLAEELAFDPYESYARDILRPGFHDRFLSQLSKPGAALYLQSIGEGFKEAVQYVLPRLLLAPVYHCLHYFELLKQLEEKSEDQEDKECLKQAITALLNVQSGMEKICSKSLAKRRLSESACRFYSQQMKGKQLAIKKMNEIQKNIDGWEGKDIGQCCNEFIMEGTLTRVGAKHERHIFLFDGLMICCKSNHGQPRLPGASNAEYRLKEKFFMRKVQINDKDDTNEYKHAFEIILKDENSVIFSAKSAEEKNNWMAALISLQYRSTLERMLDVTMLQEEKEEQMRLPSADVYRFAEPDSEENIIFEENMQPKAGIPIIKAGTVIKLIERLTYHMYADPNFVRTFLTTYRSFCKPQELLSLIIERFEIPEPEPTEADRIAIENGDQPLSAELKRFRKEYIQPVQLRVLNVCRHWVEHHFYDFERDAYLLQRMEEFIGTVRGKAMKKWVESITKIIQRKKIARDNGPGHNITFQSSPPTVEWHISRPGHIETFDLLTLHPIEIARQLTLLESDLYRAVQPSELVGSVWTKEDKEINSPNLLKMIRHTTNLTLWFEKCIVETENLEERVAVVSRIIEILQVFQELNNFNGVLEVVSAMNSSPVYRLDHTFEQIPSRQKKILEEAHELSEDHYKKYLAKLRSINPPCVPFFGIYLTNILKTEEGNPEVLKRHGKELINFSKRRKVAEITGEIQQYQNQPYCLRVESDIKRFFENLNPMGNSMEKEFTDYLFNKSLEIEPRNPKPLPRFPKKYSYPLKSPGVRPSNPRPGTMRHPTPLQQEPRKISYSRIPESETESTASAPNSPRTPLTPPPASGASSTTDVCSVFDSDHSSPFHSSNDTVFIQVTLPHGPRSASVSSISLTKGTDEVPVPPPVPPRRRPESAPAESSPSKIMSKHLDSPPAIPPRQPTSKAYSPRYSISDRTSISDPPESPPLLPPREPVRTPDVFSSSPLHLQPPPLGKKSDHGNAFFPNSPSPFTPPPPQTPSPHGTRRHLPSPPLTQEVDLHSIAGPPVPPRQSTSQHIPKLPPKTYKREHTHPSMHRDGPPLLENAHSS
Put plainly: Induction of SOS1 degradation in human NCI-H358 cells at 1 uM measured upto 72 hrs by Western blotting analysis. The format is cell-based.

Data set [8] concerns K562. Briefly: Downregulation of phosphorylated-MEK level in human K562 cells at 0.3 to 3 uM incubated for 24 hrs by Western blotting analysis. It counts as functional, cell-based. Conditions: dose 0.3-3 µM.
In data set [9] the test system is K562. Briefly: Downregulation of phosphorylated-ERK level in human K562 cells at 0.3 to 3 uM incubated for 24 hrs by Western blotting analysis. Conditions: dose 0.3-3 µM. It counts as functional, cell-based.
Data set [10] concerns K562. Briefly: Effect on total ERK level in human K562 cells at 0.3 to 3 uM incubated for 24 hrs by Western blotting analysis. The format is functional, cell-based. Conditions: dose 0.3-3 µM.
For data set [11], the system named is K562. Briefly: Potency index, ratio of BI3406 IC50 to test compound IC50 for antiproliferative activity against human K562 cells incubated for 72 hrs by CCK8 assay. It counts as functional. In general terms: Tetrazolium assays rely on reduction of a dye to a coloured formazan, in cell work by metabolically active cells.
Data set [12] relates to NCI-H358. Briefly: Inhibition of colony formation in human NCI-H358 cells at 1 to 9 uM incubated for 10 days by crystal violet staining based assay. It counts as functional, cell-based. Conditions: dose 1-9 µM, time 10.0 day.
Data set [13] in a line: Half life in ICR mouse at 10 mg/kg, po measured upto 24 hrs by LC-MS/MS analysis. It counts as ADME, organism-based. Conditions: in vivo.
Data set [14] can be described thus: AUC(0 to infinity) in ICR mouse at 10 mg/kg, po measured upto 24 hrs by LC-MS/MS analysis. The following applies: in vivo. It counts as ADME, organism-based.
Data set [15] deals with K562. Briefly: Antitumor activity against human K562 cells xenografted in NOD-SCID mouse assessed as tumor growth inhibition at 5 mg/kg, ip administered as 5 days on and 2 days off schedule for 21 days. The format is functional. Conditions: K562, 120 h, time 5 day, read-out: TGI. A general note: Xenograft models place foreign cells or tissue in a host animal.
The nature of data set [16]: Toxicity in NOD-SCID mouse assessed as body weight loss at 5 to 25 mg/kg, ip administered as 5 days on and 2 days off schedule for 21 days. The format is organism-based. The following applies: in vivo, 120 h, dose 5-25 mg/kg, time 5 day.
Data set [17] relates to SW837. Put plainly: Inhibition of ERK phosphorylation in human SW837 cells at 1 uM measured after 24 to 72 hrs in presence of AMG510 by Western blotting analysis. It counts as cell-based. Conditions: time 24-72 hrs.
The test system of data set [18] is NCI-H358. Put plainly: Antiproliferative activity against human NCI-H358 cells incubated for 6 days by CCK8 assay. It counts as functional, cell-based. The following applies: NCI-H358, 144 h.
Data set [19] deals with MIA PaCa-2. Put plainly: Induction of apoptosis in human MIA PaCa-2 cells assessed as increase in cleaved caspase-3 level incubated for 24 hrs in presence of 4-((S)-4-acryloyl-2-methylpiperazin-1-yl)-6-fluoro-7-(2-fluoro-6-hydroxyphenyl)-1-(2-isopropyl-4-methylpyridin-3-yl)pyrido[2,3-d]pyrimidin-2(1H)-one by Western blotting assay. It counts as functional, cell-based.
The subject of data set [20] is NCI-H358. Put plainly: Antitumor activity against human NCI-H358 cells xenografted in BALB/c mouse assessed as tumor growth inhibition at 30 mg/kg, ip administered once daily for 28 days. Conditions: NCI-H358, 672 h, time 28 day, read-out: TGI. It counts as functional.

Active and inactive are the calls of the source. The calls are words filed in the database; no cut-off is given here.

On to `COc1cc2nc(C)nc(N[C@H](C)c3cc(N)cc(C(F)(F)F)c3)c2cc1OCCCCC(=O)N[C@H](C(=O)N1C[C@H](O)C[C@H]1C(=O)NCc1ccc(-c2scnc2C)cc1)C(C)(C)C`, for which the Activity result in [1] is “Dose-Dependent Effect”; in [2] it was “Dose-Dependent Effect”; in data set [16], “Non-Toxic”. For the same compound, the half-maximal degradation concentration (DC50) in data set [1] amounted to 43 nM; in data set [2], 50 nM. In addition, the Emax in data set [3] and in [4] was more than 90% each time. For the same compound, the result in data set [5], in data set [7], in data set [8], in [9] and in data set [19] was Active. The result in [6] and in data set [10] was inactive. Besides, in [11], the “Ratio IC50” value is given as 3. The inhibition result in data set [12] and in data set [17] was “Active” throughout. This compound also showed a half-life in [13] of 4.19 h. Moreover, in [14], the AUC(0-inf) came to 4280 ng·h/mL. In addition, in [15], the inhibition in vivo at 5 mg/kg came to 56.3%. The compound further showed an IC50 in data set [18] of 2450 nM. In addition, the inhibition in vivo at 30 mg/kg in data set [20] was 11.4%.
